According to patent US9802993B2, “Method for producing a cell for protein production by treating a cell overexpressing a taurine transporter with methotrexate” (Chugai Seiyaku Kabushiki Kaisha, priority 2007, dated 2017):

Columns and labels:
Type in all cases: cell-based, Chinese hamster
[1] = test system: CHO DXB 11 s host cells; assay: Sensitivity to MTX (survival rate) of parent host cells in medium without HT; conditions: 10 nM or 20 nM MTX added; CHO-S-SFM II/CD-CHO mixed medium without HT; FIG. 1
From the text: (§1) Into CHO DXB 11 s cells serving as host cells, pHyg-TauT expression plasmids (see Referential Example 2 described later, FIG. 5) were introduced by electroporation to prepare DXB 11 s/TauT host cells in which TauT was strongly expressed. Subsequently, sensitivity to MTX was compared between the DXB 11 s/TauT host cells and the DXB 11 s host cells which were the parent strain.

[2] = test system: DXB 11 s/TauT host cells; assay: Sensitivity to MTX (survival rate) of host cells strongly expressing TauT in medium without HT; conditions: 10 nM or 20 nM MTX added; CHO-S-SFM II/CD-CHO mixed medium without HT; FIG. 1
From the text: as §1

[3] = test system: GC33/DXB11s, GC33/DXB11s/TauT and GC33/DXB11s/TauT/CSAD strains; assay: Sensitivity to 200 nM MTX (survival rate) of anti-glypican-3 antibody-producing strains; conditions: MTX raised from 20 nM to 200 nM; CHO-S-SFM II/CD-CHO mixed medium; FIG. 2
From the text: Then, pPur-CSAD expression plasmids (see Referential Example 4 described later, FIG. 6) were co-introduced into the above GC33/DXB11s/TauT strain to prepare a GC33/DXB11s/TauT/CSAD strain in which CSAD was strongly expressed. Subsequently, sensitivity to MTX of the GC33/DXB11s/TauT strain and the GC33/DXB11 s/TauT/C SAD strain was compared with that of the parent GC33/DXB11s strain. Because the parent strain was a strain capable of producing an antibody in which an antibody gene had been amplified to 20 copies or more (relative to the value before MTX treatment) by treatment with 20 nM MTX, the above strains could stably proliferate in the CHO-S-SFM II/CD-CHO mixed medium to which 20 nM MTX had been added.

[4] = test system: GC33/DXB11s/TauT/CSAD strain; assay: Treatment with a high concentration of MTX: proliferation and antibody production ability; conditions: for amount of antibody production / number of viable cells: recovered, then cultured in 20 nM MTX, 15 mL tubes, initial 1×10^5 cells/mL, FIG. 4
Procedure: The GC33/DXB11s/TauT/CSAD strain, which was most MTX-resistant in Example 1, was subcultured in rotation culture for 28 days using the CHO-S-SFM II/CD-CHO mixed medium to which a high concentration of MTX (100 nM or 200 nM) had been added under the condition of 2×10^5 cells/mL in an initial stage, with the medium replaced every three to five days. […] By 14 days after that, i.e., on the 42nd day, the cells had begun to proliferate. The above two strains in which survival rates were recovered by subculture in the diluted medium (cells treated with 100 nM or 200 nM MTX) were cultured in 15 mL tubes using the CHO-S-SFM II/CD-CHO mixed medium in the presence of 20 nM MTX under the condition of 1×10^5 cells/mL in an initial stage. […] Also, the amount of antibody produced by the TauT/CSAD strain before treatment with a high concentration of MTX was 86 mg/L even when the number of viable cells grew to 19.6×10^5 cells/mL; thus, it was shown that the TauT/CSAD strain before treatment with a high concentration of MTX had the lowest production ability.

## CN(Cc1cnc2nc(N)nc(N)c2n1)c1ccc(C(=O)N[C@@H](CCC(=O)O)C(=O)O)cc1 [MTX, methotrexate]
[1]
  survival rate: a tendency of accelerated decrease in the survival rate was observed
[2]
  survival rate: reduction in the survival rate was suppressed at a level equivalent to the survival rate observed in the absence of MTX
[3]
  survival rate: the survival rates in all of the above strains decreased
[4]; 100 nM or 200 nM MTX, subculture in rotation culture for 28 days, FIG. 3
  cell proliferation: no cell proliferation was observed
[4]; strain treated with 100 nM MTX
  amount of antibody production: 162 mg/L
  number of viable cells: 22.3×10^5 cells/mL
[4]; strain treated with 200 nM MTX
  amount of antibody production: 144 mg/L
  number of viable cells: 18.0×10^5 cells/mL
